This note sets out measurements from US8008346B2, “Chemotherapeutic agents for inhibition of protein translation” (The Royal University for the Advancement of Learning/McGill …, priority 2006, dated 2011).

The target of one assay is T1, eIF4AIf (Mus musculus, UniProt P60843).
T1 construct: inferred only from the Ni-NTA purification; made in house; host or cells: Escherichia coli BL21 (DE3) codon+
Description: Helicase (unwinding) assay with RNA-1/RNA-11 duplex. The assay is classed as biochemical, murine. Conditions: 50 μM. On the procedure:
FIG. 8. Selective inhibition of eIF4A activity by hippuristanol. A. Hippuristanol inhibits eIF4AIf-mediated helicase activity. Unwinding reactions were performed with RNA-1/RNA-11 duplex and recombinant eIF4AIf or Ded1p. The presence of 50 μM hippuristanol in the reaction is indicated above the panel. […] Double-stranded RNA duplex and single-stranded RNA molecules are schematically represented to the left of the panel. […] In vitro splicing reactions were performed with the AdML pre-mRNAs as previously described (48). AdML pre-mRNA was incubated with nuclear extracts in the presence of increasing amounts of hippuristanol (2 μM [lane4], 10 μM [lane 5] and 50 μM [lane 6]). Reaction products were resolved on 15% polyacrylamide/8M urea gels and subjected to autoradiography. The position of migration of the pre-mRNA and spliced product is denoted to the right. C. Rescue of hippuristanol-induced inhibition with recombinant eIF4AIf. […] A graphical representation from three experiments is provided below. Translational efficiency was calculated relative to luciferase values obtained from control translations containing vehicle (0.5% DMSO).
Recombinant eIF4AI Purification and Assays. […] Quantifications were performed on a Fujix BAS2000 phosphoimager with a Fuji imaging screen. […]

Another assay deals with 80S complex formation. Briefly: Ribosome binding (80S complex formation) of 32P-labeled CAT mRNA in rabbit reticulocyte lysate. The assay is classed as biochemical. Conditions: CAT mRNA/CHX + 50 μM hippuristanol; CHX alone 22% binding. The protocol:
FIG. 6. Hippuristanol inhibits translation initiation. A. Hippuristanol inhibits 80S complex formation. ^32P-labeled CAT mRNA was incubated in rabbit reticulocyte lysate with cycloheximide (CHX) in the presence or absence of 50 μM hippuristanol. Complexes were resolved on glycerol gradients. Total counts recovered from each gradient and the percent mRNA bound in 80S complexes were: CAT mRNA/CHX [43,498 cpm, 22% binding] and CAT mRNA/CHX+Hipp. [45,279 cpm, 5.7% binding]. B. Hippuristanol inhibits crosslinking of eIF4Ac and eIF4B to capped mRNA. Initiation factors were chemically crosslinked to ^32P cap-labeled mRNA in the absence (lane 2) or presence of ATP (lanes 1, 3-6), 0.6 mM m^7GDP (lane 3), 0.6 mM GDP (lane 4), or 50 μM hippuristanol (lane 6). Following nuclease digestion, samples were resolved by SDS-PAGE and the gel subjected to autoradiography.
Ribosome Binding and mRNA Crosslinking. Ribosome binding assays were performed by incubating ^32P-labelled CAT mRNA in rabbit reticulocyte lysate or wheat germ extracts in the presence of: 600 μM cycloheximide (CHX), 1 mM GMP-PNP, and/or 50 μM hippuristanol or vehicle for 10 min (33). […] Fractions of 500 μl were collected and radioactivity was determined by scintillation counting. […]

T1 sequence (P60843 whole entry): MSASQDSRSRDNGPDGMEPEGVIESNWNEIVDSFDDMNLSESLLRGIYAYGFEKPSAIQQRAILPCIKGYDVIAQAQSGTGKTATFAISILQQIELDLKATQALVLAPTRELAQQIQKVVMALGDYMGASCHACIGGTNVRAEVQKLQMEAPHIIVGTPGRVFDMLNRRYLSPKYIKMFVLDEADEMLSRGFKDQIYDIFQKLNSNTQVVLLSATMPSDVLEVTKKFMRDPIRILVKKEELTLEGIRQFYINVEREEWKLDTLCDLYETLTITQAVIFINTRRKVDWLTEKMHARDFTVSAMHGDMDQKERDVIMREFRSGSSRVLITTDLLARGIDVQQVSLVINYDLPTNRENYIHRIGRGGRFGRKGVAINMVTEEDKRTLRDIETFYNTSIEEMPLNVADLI

Consider `C[C@H]1C[C@@]2(O[C@H]3C[C@H]4[C@@H]5CC[C@H]6C[C@H](O)CC[C@]6(C)[C@H]5[C@@H](O)C[C@]4(C)[C@H]3[C@@]2(C)O)OC1(C)C` [Hippuristanol, hippuristanol], for which, at eIF4AIf, the eIF4AIf-mediated helicase activity entry is on record as “inhibits”. Further, the “percent mRNA bound in 80S complexes” value in the assay on 80S complex formation is reported as 5.7%.
